Consider 2 molecules from patent publication US12365658B2, “Benzothia(di)azepine compounds and their use as bile acid modulators” (Albireo AB, priority 2021, dated 2025).

For one series, the target named is T1, Human LBAT (Homo sapiens, UniProt Q14973).
T1 construct: expressed in transfected cells; kept under Geneticin selection
T1 sequence (Q14973 1-349): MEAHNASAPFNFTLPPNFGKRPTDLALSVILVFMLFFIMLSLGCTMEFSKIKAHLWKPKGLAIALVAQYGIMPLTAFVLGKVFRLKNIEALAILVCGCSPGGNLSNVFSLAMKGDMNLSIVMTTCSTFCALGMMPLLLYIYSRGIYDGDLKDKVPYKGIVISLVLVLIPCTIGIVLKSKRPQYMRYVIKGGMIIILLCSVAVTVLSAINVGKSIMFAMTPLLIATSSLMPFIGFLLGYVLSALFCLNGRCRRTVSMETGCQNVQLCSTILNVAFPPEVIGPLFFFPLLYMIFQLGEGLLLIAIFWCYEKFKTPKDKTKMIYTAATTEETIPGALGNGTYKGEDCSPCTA
As to the kind of experiment: LBAT (h/m) assay, human LBAT-overexpressing cells, 3H-taurocholic acid uptake. It counts as cell-based. The conditions noted are these: 0.3 μM 3H-taurocholic acid and 7.5 μM cold taurocholic acid, 20 minutes, read-out: hLBAT IC50. The method, then: LBAT (h/m) Assay Protocol
20,000 cells (Human or Mouse LBAT-overexpressing cells) were seeded in 96-wells plate (Corning CLS3809) in 100 μL MEM-alpha medium (Gibco 12571-063) supplemented with 10% FBS (Gibco 10438026) containing Geneticin (Gibco 10131-027) (1 mg/mL) and incubated at 37° C. in 5% CO2 for 24 hours. After incubation, media was decanted from the wells and cells were washed two times with 300 μL of basal MEM-alpha medium (FBS-free). After decanting basal MEM-alpha medium each time, plates were tapped against paper towel to ensure maximum removal of residual media.
For human LBAT, incubation mix was prepared by adding test inhibitor dilutions (3-fold serial dilution in DMSO (Sigma D2650), 10 points) in MEM-alpha (without FBS) containing 0.3 μM 3H-taurocholic acid (ARC ART-1368) and 7.5 μM cold taurocholic acid (Sigma T4009) (maintaining 0.2% final DMSO concentration). For mouse LBAT, incubation mix was prepared by adding test inhibitor dilutions (3-fold serial dilution in DMSO, 10 points) in MEM-alpha (without FBS) containing 0.3 μM 3H-taurocholic acid and 25 μM cold taurocholic acid maintaining 0.2% final DMSO concentration).
50 μL of incubation mix containing test inhibitors was then added to the wells (in duplicate) and the plates were incubated for 20 minutes in a CO2 incubator at 37° C. After incubation, the reaction was stopped by keeping the plates on ice water mix for 2-3 minutes and then the incubation mix was aspirated completely from the wells. The wells were washed two times with 250 μL of chilled unlabelled 1 mM taurocholic acid dissolved in HEPES (Gibco 15630080)-buffered (10 mM) HBSS (Gibco 14175079) (pH 7.4). The plates were tapped against a paper towel after every wash to ensure maximum removal of blocking buffer.
100 μL of MicroScint-20 (PerkinElmer 6013621) was added to the wells and kept overnight at room temperature before reading the plates in TopCount NXT™ Microplate Scintillation and Luminescence Counter from PerkinElmer under 3H Test protocol (set at 120 seconds reading time per well, with normal plate orientation).
(§1) Preparation of Test Compound Dilutions
(§2) All test compounds were provided in powder form at room temperature. 10 mM DMSO stocks of the test compounds were prepared, aliquoted and stored at −20° C. From the 10 mM DMSO stock of the compounds, a 3-fold serial dilution in DMSO was prepared to get a total of 10 dilutions of the test compounds. 0.5 μL of this dilution in DMSO was added to 250 μL of FBS-free basal media containing 3H-taurocholic acid and cold taurocholic acid to prepare the incubation mixture.

Another series concerns Caco-2 cells. As to the kind of experiment: Bidirectional permeability assay (Caco-2 cells). It counts as in vitro ADME. To be noted: 10 μM in FaSSIF buffer, 120 minutes. The method, then:
Bidirectional Permeability Assay (Caco-2 Cells)
Caco-2 cells (Evotec) were seeded at a density of 70,000 cells/well in Millicell® 24-well cell culture insert plates and maintained in an incubator (37° C., 5% CO2, 95% RH) for 21 days with media change on alternate days.
Stock solutions (10 mM) of the test compounds, atenolol (low permeability marker), propranolol (high permeability marker) and digoxin (substrate for P-gp transport pathway) were prepared in dimethylsulfoxide (DMSO). An intermediate stock solution (1 mM) was prepared by diluting 10 μL of 10 mM master stock solution with 90 μL of neat DMSO. A working stock solution (10 μM) was prepared by diluting 50 μL of 1 mM with 4950 μL of FaSSIF buffer. Post addition of compounds to the FaSSIF, samples were subjected to sonication for 2 hours, and centrifuged at 4000 RPM for 30 minutes at 37° C. The 4 mL of resultant supernatant was directly used in the assay. The final DMSO concentration in the transport experiments was 1%.
On the day of assay, Caco-2 monolayers were washed twice with transport buffer (HBSS, pH 7.4) and pre-incubated for 30 min (37° C., 5% CO2, 95% RH) in an incubator. The electrical resistance of the monolayers was measured with a Millicell®-ERS system. Monolayers with trans-epithelial electrical resistance (TEER) values greater than 350 ohm·cm^2 were selected for the assay.
The assay was conducted in absorptive direction (A2B) and secretory (B2A) directions. Transport experiments were initiated by addition of transport assay buffer (FaSSIF buffer prepared in HBSS) consisting of compounds to the donor compartment (apical chamber A-B; basolateral chamber B-A) in duplicate (n=2) wells. Drug free HBSS buffer (pH 7.4) containing 1% bovine serum albumin (BSA) was introduced to the receiver (A-B-basolateral; B-A-Apical) compartments. The volumes of apical and basolateral compartments were 0.4 and 0.8 mL, respectively. After adding dosing solution, plates were incubated in an incubator for 120 minutes at 37° C. After 120 minutes, donor and receiver samples were collected and matrix matched (1:1, 30 μL study sample+30 μL blank buffer) with the opposite buffer. Dosing samples matrix matched (1:1, 30 μL study sample+30 μL blank buffer) with the opposite buffer. Samples were processed by adding acetonitrile containing internal standard (60 μL study sample+200 μL acetonitrile containing internal standard-Tolbutamide, 500 ng/mL). Samples were vortexed and centrifuged at 4000 rpm for 10 minutes. The obtained supernatant (100 μL) was diluted with 100 μL of water and transferred to fresh 96 well plates. The concentration of compounds in the samples was analyzed by liquid chromatography tandem mass spectrometry (LC-MS/MS) method using discovery grade bio-analytical method, as applicable.
The mean apparent permeability (Papp, ×10^−6 cm/sec) of the test compounds, atenolol, propranolol and digoxin were calculated as follows:
where dq/dt=rate of transport (rate of transport of compound in the receiver compartment), C0=initial concentration in the donor compartment, A=surface area of the effective filter membrane.
(In general: Caco-2 cells form a polarised layer with tight junctions and transporters.)

A short description of a further series: Bioavailability studies. Format: in vivo, Male mice (C57BL/6 or CD1) or Wistar rats. The conditions noted are these: male, plasma; single intravenous dose 1 mg/kg and single oral dose 10 mg/kg; species per compound not given. On the procedure: Male mice (C57BL/6 or CD1) or Wistar rats of 8-9 weeks old were used. For each test compound, two groups of 3 animals each were used. One group was administered a single intravenous dose of 1 mg/kg (vehicle 100% DMSO) through the tail vein and the other group was administered a single oral dose of 10 mg/kg through gavage needle. The group that was administered an oral dose was fasted overnight. Blood samples were collected after 0.083, 0.25, 0.5, 1, 2, 4, 6, 8 and 24 hours following intravenous administration, and after 0.25, 0.5, 1, 2, 4, 6, 8 and 24 hours following oral administration. Blood samples were taken from saphenous vein. 0.2% EDTA was used as the anticoagulant. The samples were analyzed by a discovery grade bioanalytical method developed for the estimation of test compound in plasma, using an LC-MS/MS system.

The target of the next series is T2, Human IBAT (Homo sapiens, UniProt Q12908).
T2 construct: expressed in transfected cells; kept under Puromycin selection
T2 sequence (Q12908 1-348): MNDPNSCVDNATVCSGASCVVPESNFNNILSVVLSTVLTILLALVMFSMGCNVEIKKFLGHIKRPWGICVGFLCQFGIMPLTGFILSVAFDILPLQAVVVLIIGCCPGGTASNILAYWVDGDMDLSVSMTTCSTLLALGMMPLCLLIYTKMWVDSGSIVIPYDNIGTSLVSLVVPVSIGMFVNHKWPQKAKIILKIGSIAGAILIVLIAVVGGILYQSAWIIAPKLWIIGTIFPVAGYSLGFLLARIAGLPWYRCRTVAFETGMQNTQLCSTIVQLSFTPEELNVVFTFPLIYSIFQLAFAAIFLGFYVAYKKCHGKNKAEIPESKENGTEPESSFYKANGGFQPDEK
As to the kind of experiment: IBAT (h/m) assay, human IBAT-overexpressing cells, 3H-taurocholic acid uptake. It counts as cell-based. To be noted: 0.25 μM 3H-taurocholic acid and 5 μM cold taurocholic acid, 20 minutes, highest test concentration 10 μM, read-out: hIBAT IC50. The method, then:
IBAT (h/m) Assay Protocol
10,000 cells (Human or Mouse IBAT-overexpressing cells) were seeded in 96-wells plate (Corning CLS3809) in 200 μL MEM-alpha medium (Gibco 12571-063) supplemented with 10% FBS (Gibco 10438026) containing Puromycin (Gibco A1113803) (10 μg/mL) and incubated at 37° C. in 5% CO2 for 48 hours. After incubation, media was decanted from the wells and cells were washed two times with 300 μL of basal MEM-alpha medium (FBS-free). After decanting basal MEM-alpha medium each time, plates were tapped against paper towel to ensure maximum removal of residual media. Test inhibitor dilutions (highest test concentration being 10 μM, 3-fold serial dilution, 10 points) prepared in DMSO (Sigma D2650) were added in incubation mix (maintaining 0.2% final DMSO concentration) containing 0.25 μM 3H-taurocholic acid (ARC ART-1368) and 5 μM of cold taurocholic acid (Sigma T4009). 50 μL of incubation mix containing test inhibitors was then added to the wells (in duplicate) and the plates were incubated for 20 minutes in a CO2 incubator at 37° C. After incubation, the reaction was stopped by keeping the plates on ice water mix for 2-3 minutes and then the incubation mix was aspirated completely from the wells. The wells were washed two times with 250 μL of chilled unlabelled 1 mM taurocholic acid dissolved in HEPES (Gibco 15630080)-buffered (10 mM) HBSS (Gibco 14175079) (pH 7.4). The plates were tapped against a paper towel after every wash to ensure maximum removal of blocking buffer.
100 μL of MicroScint-20 (PerkinElmer 6013621) was added to the wells and kept overnight at room temperature before reading the plates in TopCount NXT™ Microplate Scintillation and Luminescence Counter from PerkinElmer under 3H Test protocol (set at 120 seconds reading time per well).
as §1, §2

The structures appear in SMILES notation.

Turning to `CCCCC1CN(c2ccc(F)cc2)c2cc(SC)c(OCC(C)(C)C(=O)O)cc2S(=O)(=O)N1C` (single isomer, unassigned) [14, enantiomer 2], at Human LBAT, the IC50 turned out to be 3 nM. Further, in the series on Caco-2 cells (absorptive direction (A2B)), the “Permeability (Caco-2) Papp A2B” value worked out at 12.2 ×10⁻⁶ cm/s. Besides, the “Permeability (Caco-2) Papp B2A” value in the series on Caco-2 cells (secretory direction (B2A)) came to 7.3 ×10⁻⁶ cm/s. For the same molecule, in the series “Bioavailability studies”, the bioavailability came out at 100%.
Take `CCCCC1CN(c2ccccc2)c2cc(SCC)c(OCC3(C(=O)O)CC3)cc2S(=O)(=O)N1` (stereo not drawn) [Example 15, 1-(((3-butyl-7-(ethylthio)-1,1-dioxido-5-phenyl-2,3,4,5-tetrahydro-1,2,5-benzothiadiazepin-8-yl)oxy)methyl)cyclopropane-1-carboxylic acid]: the results for the IC50 at Human LBAT and at Human IBAT were 4.2 nM and above 3330 nM, respectively.

Usually IC50 stands for the concentration at which inhibition is half-maximal. One may read the bioavailability as the share of a dose that reaches the circulation, judged against a reference dose that is usually intravenous. Higher therefore signals much systemic uptake.
